Assay results as given in PubChem BioAssay AID2060884 (Molecular Pharmacology Branch, DTP, NCI, 2025).

System: NCI-H929 complex spheroids, viability % test/control
Assay: Anticancer human tumor NCI-H929 cell line growth inhibition [RAS];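 further: compound exposure lasted seven days before viability was read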
Settings: for IC50: curve of first compound; for viability, T/C: stronger effect = lower value
Text: RAS pathway inhibitors in Combinations in Complex Spheroids
A high-throughput screen of multi-cell type tumor spheroids was designed to identify active combinations of RAS pathway inhibitors and targeted small molecules. Complex spheroids include a stromal component modeled by human endothelial cells (HUVEC) and fibroblasts modeled by human mesenchymal stem cells (MSCs). The concentration ranges selected for each drug and investigational agent were based upon clinically achievable concentrations if the clinical Cmax of the agent was known.
Compounds. The drugs and investigational agents: abemaciclib (NSC768073), cobimetinib (NSC768068), divarasib (GDC6063, NSC841802), docetaxel (NSC628503), GDC-1971 (RLY-1971, NSC841576), gemcitabine (NSC613327), inavolisib (NSC800729), ipatasertib (NSC767898), KB-0742 (NSC834161), MRTX-1133 (NSC836407), osimertinib (NSC779217), RMC-4630 (NSC839698), RMC-6236 (NSC851965), RMC-6291 (NSC852671), Ro-3306 (NSC812927), sapanisertib (NSC764658), SN-38 (NSC673596), staurosporine (NSC755774), SY5609 (NSC837396), and tovorafenib (DAY101, NSC766906), were obtained from the National Cancer Institute (NCI) Developmental Therapeutics Program Chemical Repository. The FDA-approved anticancer drug set is available from the NCI Developmental Therapeutics Program. […] The stock solutions were prepared in dimethyl sulfoxide (DMSO, Sigma-Aldrich, St. Louis, MO, cat. D2650) at 800-fold the tested concentration and stored at -70 degrees C prior to their use. All drugs and investigational agents were tested over a range starting from a high concentration at or near the clinical Cmax and decreasing in half-log increments. If the clinical Cmax for an agent had not been determined, the highest concentration tested was 10 microM.
Cell Culture. All cells were maintained in an incubator at 37 degrees C and 5% CO2 with 95% humidity. The PDC lines were cultured according to standard operating procedures established by the NCI PDMR. All PDCs were thawed and cultured in Matrigel-coated flasks prepared with a working solution of 1X Ham's F-12 nutrient mix, without supplementation (Invitrogen, Waltham, MA, cat. 11765054), 100 U/mL penicillin-streptomycin (Invitrogen, cat. 15140122), and 2.5% Matrigel (Corning Inc., Corning, NY, cat. 354248) for the first three passages. The 362531-283-R-J2-PDC and 782815-120-R-J1-PDC lines were cultured in 6C/Colon 1B media, which includes advanced DMEM/F-12 (Thermo Fisher Scientific, cat. 12634028), 10 mM HEPES (Thermo Fisher Scientific, cat. 15630080), 1X GlutaMAX supplement (Thermo Fisher Scientific, cat. 35050061), 0.1 mg/mL primocin (InvivoGen, San Diego, CA, cat. ant-pm-2), 10% defined fetal bovine serum, heat inactivated (HyClone Laboratories Inc., Logan, UT, cat. SH30070.03HI), 50% L-WRN conditioned media (ATCC, cat. CRL-3276), 1.25 mM N-Acetyl-L-cysteine (Sigma-Aldrich, cat. A9165), 10 mM nicotinamide (Sigma-Aldrich, cat. N0636), 1X B-27 supplement (Thermo Fisher Scientific, cat. 17504044), 1X N-2 supplement (Thermo Fisher Scientific, cat. 17502048), 50 ng/mL human EGF (Thermo Fisher Scientific, cat. PHG0311), and 10 microM Y-27632 dihydrochloride (Tocris Bioscience, cat. 1254). The K12877-001-R-J1-PDC line was cultured in 6I media, which includes all 6C/Colon 1B media plus 10 ng/mL human FGF-10 (PeproTech, cat. 100-26), 1 ng/mL human FGF-2 (PeproTech, cat. 100-18B), 1 µM prostaglandin E2 (Tocris Bioscience, cat. 2296), […] hydrocortisone (Sigma-Aldrich, cat. H4001), and […] bovine insulin (Sigma-Aldrich, cat. I6634). The K86415-001-R-J1-PDC line was cultured in 6D media, which includes all 6C/Colon 1B media components minus the L-WRN conditioned media. The 485176-168-R4-J1-PDC was cultured in PANC media, which includes all 6C/Colon 1B media plus 100 ng/mL human FGF-10 (PeproTech, cat. 100-26), 500 nM SB-431542 (Selleckchem, cat. S1067), and 10 nM gastrin (Tocris Bioscience, cat. 3006). […]

C=CC(=O)Nc1cc(Nc2nccc(-c3cn(C)c4ccccc34)n2)c(OC)cc1N(C)CCN(C)C + C=CC(=O)N1CCN(c2nc(OCC3CCCN3C)nc3c(F)c(-c4nc(N)cc(C)c4C(F)(F)F)c(Cl)cc23)C(C)C1
IC50 (second compound 0.00316 µM): > 1000 nM
IC50 (second compound 0.01 µM): > 1000 nM
IC50 (second compound 0.0316 µM): > 1000 nM
IC50 (second compound 0.1 µM): > 1000 nM
IC50 (second compound 0.316 µM): > 1000 nM
IC50 (second compound 1 µM): > 1000 nM
viability, T/C (second compound 0.00316 µM, first compound 0.00316 µM): 93.4%
viability, T/C (second compound 0.00316 µM, first compound 0.01 µM): 97.7%
viability, T/C (second compound 0.00316 µM, first compound 0.0316 µM): 102%
viability, T/C (second compound 0.00316 µM, first compound 0.1 µM): 95.2%
viability, T/C (second compound 0.00316 µM, first compound 0.316 µM): 100%
viability, T/C (second compound 0.00316 µM, first compound 1 µM): 103%
viability, T/C (second compound 0.01 µM, first compound 0.00316 µM): 101%
viability, T/C (second compound 0.01 µM, first compound 0.01 µM): 100%
viability, T/C (second compound 0.01 µM, first compound 0.0316 µM): 101%
viability, T/C (second compound 0.01 µM, first compound 0.1 µM): 101%
viability, T/C (second compound 0.01 µM, first compound 0.316 µM): 99.4%
viability, T/C (second compound 0.01 µM, first compound 1 µM): 107%
viability, T/C (second compound 0.0316 µM, first compound 0.00316 µM): 95.5%
viability, T/C (second compound 0.0316 µM, first compound 0.01 µM): 99.8%
viability, T/C (second compound 0.0316 µM, first compound 0.0316 µM): 104%
viability, T/C (second compound 0.0316 µM, first compound 0.1 µM): 99.3%
viability, T/C (second compound 0.0316 µM, first compound 0.316 µM): 103%
viability, T/C (second compound 0.0316 µM, first compound 1 µM): 104%
viability, T/C (second compound 0.1 µM, first compound 0.00316 µM): 98.1%
viability, T/C (second compound 0.1 µM, first compound 0.01 µM): 101%
viability, T/C (second compound 0.1 µM, first compound 0.0316 µM): 108%
viability, T/C (second compound 0.1 µM, first compound 0.1 µM): 99.1%
viability, T/C (second compound 0.1 µM, first compound 0.316 µM): 101%
viability, T/C (second compound 0.1 µM, first compound 1 µM): 107%
viability, T/C (second compound 0.316 µM, first compound 0.00316 µM): 101%
viability, T/C (second compound 0.316 µM, first compound 0.01 µM): 104%
viability, T/C (second compound 0.316 µM, first compound 0.0316 µM): 101%
viability, T/C (second compound 0.316 µM, first compound 0.1 µM): 99.5%
viability, T/C (second compound 0.316 µM, first compound 0.316 µM): 104%
viability, T/C (second compound 0.316 µM, first compound 1 µM): 105%
viability, T/C (second compound 1 µM, first compound 0.00316 µM): 106%
viability, T/C (second compound 1 µM, first compound 0.01 µM): 106%
viability, T/C (second compound 1 µM, first compound 0.0316 µM): 107%
viability, T/C (second compound 1 µM, first compound 0.1 µM): 105%
viability, T/C (second compound 1 µM, first compound 0.316 µM): 107%
viability, T/C (second compound 1 µM, first compound 1 µM): 106%

CCN1CCN(Cc2ccc(Nc3ncc(F)c(-c4cc(F)c5nc(C)n(C(C)C)c5c4)n3)nc2)CC1 + CCn1c(-c2cc(N3CCN(C)CC3)cnc2C(C)OC)c2c3cc(ccc31)-c1csc(n1)CC(NC(=O)C1CC1C)C(=O)N1CCCC(N1)C(=O)OCC(C)(C)C2
IC50 (second compound 0.000949 µM): 789 nM
IC50 (second compound 0.003 µM): 725 nM
IC50 (second compound 0.00949 µM): 642 nM
IC50 (second compound 0.03 µM): 134 nM
IC50 (second compound 0.0949 µM): < 3.16 nM
IC50 (second compound 0.3 µM): < 3.16 nM
viability, T/C (second compound 0.000949 µM, first compound 0.00316 µM): 104%
viability, T/C (second compound 0.000949 µM, first compound 0.01 µM): 98.4%
viability, T/C (second compound 0.000949 µM, first compound 0.0316 µM): 110%
viability, T/C (second compound 0.000949 µM, first compound 0.1 µM): 107%
viability, T/C (second compound 0.000949 µM, first compound 0.316 µM): 114%
viability, T/C (second compound 0.000949 µM, first compound 1 µM): 35.1%
viability, T/C (second compound 0.003 µM, first compound 0.00316 µM): 98.3%
viability, T/C (second compound 0.003 µM, first compound 0.01 µM): 105%
viability, T/C (second compound 0.003 µM, first compound 0.0316 µM): 108%
viability, T/C (second compound 0.003 µM, first compound 0.1 µM): 113%
viability, T/C (second compound 0.003 µM, first compound 0.316 µM): 114%
viability, T/C (second compound 0.003 µM, first compound 1 µM): 27.8%
viability, T/C (second compound 0.00949 µM, first compound 0.00316 µM): 109%
viability, T/C (second compound 0.00949 µM, first compound 0.01 µM): 116%
viability, T/C (second compound 0.00949 µM, first compound 0.0316 µM): 120%
viability, T/C (second compound 0.00949 µM, first compound 0.1 µM): 125%
viability, T/C (second compound 0.00949 µM, first compound 0.316 µM): 122%
viability, T/C (second compound 0.00949 µM, first compound 1 µM): 7.19%
viability, T/C (second compound 0.03 µM, first compound 0.00316 µM): 81.7%
viability, T/C (second compound 0.03 µM, first compound 0.01 µM): 80.5%
viability, T/C (second compound 0.03 µM, first compound 0.0316 µM): 76.6%
viability, T/C (second compound 0.03 µM, first compound 0.1 µM): 55.4%
viability, T/C (second compound 0.03 µM, first compound 0.316 µM): 29.2%
viability, T/C (second compound 0.03 µM, first compound 1 µM): 1.2%
viability, T/C (second compound 0.0949 µM, first compound 0.00316 µM): 9.23%
viability, T/C (second compound 0.0949 µM, first compound 0.01 µM): 8.26%
viability, T/C (second compound 0.0949 µM, first compound 0.0316 µM): 6.56%
viability, T/C (second compound 0.0949 µM, first compound 0.1 µM): 4.66%
viability, T/C (second compound 0.0949 µM, first compound 0.316 µM): 2.4%
viability, T/C (second compound 0.0949 µM, first compound 1 µM): 0.89%
viability, T/C (second compound 0.3 µM, first compound 0.00316 µM): 4.35%
viability, T/C (second compound 0.3 µM, first compound 0.01 µM): 4.24%
viability, T/C (second compound 0.3 µM, first compound 0.0316 µM): 2.73%
viability, T/C (second compound 0.3 µM, first compound 0.1 µM): 2.03%
viability, T/C (second compound 0.3 µM, first compound 0.316 µM): 1.42%
viability, T/C (second compound 0.3 µM, first compound 1 µM): 0.89%
